Consider 24 compounds from patent publication US20250101041A1, “POSITIVE ALLOSTERIC MODULATORS OF THE MUSCARINIC ACETYLCHOLINE RECEPTOR M4” (Vanderbilt University, priority 2022, published 2025).

pEC50: −log10 of the molar value.

Broadly, the Emax is the maximal effect, on the per cent scale that the assay sets. One may read the pEC50 as the EC50 on a negative log10 scale, so that one unit is a factor of ten.

This test addresses T1, human mAChR M4 (Homo sapiens, UniProt P08173).
T1 construct: expressed in transfected cells; host or cells: CHO-K1 (American Type Culture Collection), stably expressing hM4 and Gqi5
T1 sequence (P08173 1-479): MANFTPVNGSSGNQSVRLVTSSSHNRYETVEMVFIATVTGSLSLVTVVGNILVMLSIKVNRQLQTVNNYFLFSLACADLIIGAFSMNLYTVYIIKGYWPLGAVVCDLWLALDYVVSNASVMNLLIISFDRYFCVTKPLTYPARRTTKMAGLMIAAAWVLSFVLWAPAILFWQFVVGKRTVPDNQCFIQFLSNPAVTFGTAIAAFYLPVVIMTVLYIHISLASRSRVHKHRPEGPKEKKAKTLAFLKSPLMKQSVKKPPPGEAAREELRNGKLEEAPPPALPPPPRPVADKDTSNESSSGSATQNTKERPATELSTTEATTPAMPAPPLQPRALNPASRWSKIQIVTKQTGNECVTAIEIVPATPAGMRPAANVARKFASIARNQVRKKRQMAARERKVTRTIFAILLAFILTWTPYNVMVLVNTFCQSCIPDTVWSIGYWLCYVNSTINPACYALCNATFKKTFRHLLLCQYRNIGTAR
Nature of the test: mAChR M4 cell-based functional assay: calcium mobilization (Fluo-4, FDSS), potentiation of EC20 acetylcholine response in hM4-Gqi5 CHO-K1 cells. Conditions: human M4; for Emax at 30 µM: CHO-K1, % ACh maximum at 30 μM; for pEC50: potentiation of EC20 acetylcholine response, calcium mobilization. The gist of the method: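 Readout is the fluorescence-ratio rise at 1 Hz on FDSS, with PAM activity taken as concentration-dependent enhancement of the EC20 acetylcholine response, fitted four-parameter for EC50/Emax. hM4-Gqi5 CHO-K1 cells carried Fluo-4 AM dye; test compounds (11 points, 1:3) preceded EC20 acetylcholine additions at 144 s and 230 s.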
On the technique in general: Calcium flux is commonly read through the fluorescence of an indicator in the cells.

Consider `Cc1cc(=O)n2nc(N3CCc4ncc(-c5cncc(F)c5)cc4C3)c(C)c(C)c2n1` [Compound 1-134, 7-(3-(5-fluoropyridin-3-yl)-7,8-dihydro-1,6-naphthyridin-6(5H)-yl)-2,8,9-trimethyl-4H-pyrimido[1,2-b]pyridazin-4-one], for which the Emax at 30 µM was found to be 88% and the pEC50 is 6.15.
On to `Cc1cc2nccc(=O)n2nc1N1CCc2ncc(-c3c(C)ccnc3C)cc2C1` [Compound 1-401, 7-(3-(2,4-dimethylpyridin-3-yl)-7,8-dihydro-1,6-naphthyridin-6(5H)-yl)-8-methyl-4H-pyrimido [1,2-b]pyridazin-4-one], for which the maximal response (Emax) at 30 µM turned out to be 39%.
Turning to `Cc1cc(=O)n2nc(N3CCc4ncc(-c5cnccc5Cl)cc4C3)c(C)c(C)c2n1` [Compound 1-126, 7-(3-(4-chloropyridin-3-yl)-7,8-dihydro-1,6-naphthyridin-6(5H)-yl)-2,8,9-trimethyl-4H-pyrimido[1,2-b]pyridazin-4-one], the Emax at 30 µM stood at 88% and the pEC50 is 6.12.
Turning to `[2H]C1([2H])Cc2ncc(Nc3cc(C)ncc3F)cc2C([2H])([2H])N1c1nn2c(=O)ccnc2cc1C` [Compound 2-162, 7-(3-((5-fluoro-2-methylpyridin-4-yl)amino)-7,8-dihydro-1,6-naphthyridin-6(5H)-yl-5,5,7,7-d4)-8-methyl-4H-pyrimido[1,2-b]pyridazin-4-one], the Emax at 30 µM worked out at 96% and the pEC50 is 7.80.
For `Cc1c(N2CCc3ncc(-c4cncnc4)cc3C2)nn2c(=O)ccnc2c1C` [Compound 1-104, 8,9-dimethyl-7-(3-(pyrimidin-5-yl)-7,8-dihydro-1,6-naphthyridin-6(5H)-yl)-4H-pyrimido[1,2-b]pyridazin-4-one], the Emax at 30 µM worked out at 90% and the pEC50 is 6.16.
For the compound `Cc1c(N2CCc3ncc(-c4ccc(C(F)(F)F)nc4)cc3C2)nn2c(=O)ccnc2c1C` [Compound 1-90, 8,9-dimethyl-7-(3-(6-(trifluoromethyl)pyridin-3-yl)-7,8-dihydro-1,6-naphthyridin-6(5H)-yl)-4H-pyrimido[1,2-b]pyridazin-4-one], the Emax at 30 µM was found to be 87% and the pEC50 is 6.17.
On the same counts, the results for `Cc1cc2nccc(=O)n2nc1N1CCc2ncc(-c3cnn(C)c3C(F)F)cc2C1` [Compound 1-413, 7-(3-(5-(difluoromethyl)-1-methyl-1H-pyrazol-4-yl)-7,8-dihydro-1,6-naphthyridin-6(5H)-yl)-8-methyl-4H-pyrimido[1,2-b]pyridazin-4-one] are 89% and 6.68.
With `Cc1cc2nccc(=O)n2nc1N1CCc2ncc(-c3c(C)noc3C)cc2C1` [Compound 1-416, 7-(3-(3,5-dimethylisoxazol-4-yl)-7,8-dihydro-1,6-naphthyridin-6(5H)-yl)-8-methyl-4H-pyrimido[1,2-b]pyridazin-4-one], the Emax at 30 µM was determined as 89% and the pEC50 was 6.10.
Consider `Cc1cc(=O)n2nc(N3CCc4ncc(C(F)(F)F)cc4C3)c(C)c(C)c2n1` [Compound 1-33, 2,8,9-trimethyl-7-(3-(trifluoromethyl)-7,8-dihydro-1,6-naphthyridin-6(5H)-yl)-4H-pyrimido[1,2-b]pyridazin-4-one], for which the Emax at 30 µM is 77% and the pEC50 is 7.19.
In the case of `Cc1ncc(-c2cnc3c(c2)CN(c2nn4c(=O)c(Cl)cnc4cc2C)CC3)s1` [Compound 1-13, 3-chloro-8-methyl-7-(3-(2-methylthiazol-5-yl)-7,8-dihydro-1,6-naphthyridin-6(5H)-yl)-4H-pyrimido[1,2-b]pyridazin-4-one], the Emax at 30 µM came out at 79% and the pEC50 is 6.43.
Regarding `Cc1cc(=O)n2nc(N3CCc4ncc(-c5ccsc5)cc4C3)c(C)c(C)c2n1` [Compound 1-304, 2,8,9-trimethyl-7-(3-(thiophen-3-yl)-7,8-dihydro-1,6-naphthyridin-6(5H)-yl)-4H-pyrimido[1,2-b]pyridazin-4-one], the Emax at 30 µM worked out at 89% and the pEC50 was 6.77.
In the case of `Cc1cc2nccc(=O)n2nc1N1CCc2ncc(Nc3ccccc3F)cc2C1` [Compound 2-98, 7-(3-((2-fluorophenyl)amino)-7,8-dihydro-1,6-naphthyridin-6(5H)-yl)-8-methyl-4H-pyrimido[1,2-b]pyridazin-4-one], the Emax at 30 µM was 90% and the pEC50 is 7.72.
Regarding `Cc1cc2nccc(=O)n2nc1N1CCc2ncc(Nc3cccc(OC(F)F)c3)cc2C1` [Compound 2-71, 7-(3-((3-(difluoromethoxy)phenyl)amino)-7,8-dihydro-1,6-naphthyridin-6(5H)-yl)-8-methyl-4H-pyrimido[1,2-b]pyridazin-4-one], the Emax at 30 µM was found to be 97% and the pEC50 is 7.09.
Regarding `Cc1nc2c(C)c(C)c(N3CCc4ncc(N5CCCn6nccc65)cc4C3)nn2c(=O)c1F` [Compound 2-12, 7-(3-(6,7-dihydropyrazolo[1,5-a]pyrimidin-4(5H)-yl)-7,8-dihydro-1,6-naphthyridin-6(5H)-yl)-3-fluoro-2,8,9-trimethyl-4H-pyrimido[1,2-b]pyridazin-4-one], the Emax at 30 µM amounted to 128% and the pEC50 was 7.41.
On to `Cc1ccc(-c2cnc3c(c2)CN(c2nn4c(=O)cc(C(F)(F)F)nc4cc2C)CC3)cn1` [Compound 1-80, 8-methyl-7-(3-(6-methylpyridin-3-yl)-7,8-dihydro-1,6-naphthyridin-6(5H)-yl)-2-(trifluoromethyl)-4H-pyrimido[1,2-b]pyridazin-4-one], for which the Emax at 30 µM is 104% and the pEC50 is 7.19.
The like results for `Cc1cc2ncc(Cl)c(=O)n2nc1N1CCc2ncc(N3CCCn4nccc43)cc2C1` [Compound 2-4, 3-chloro-7-(3-(6,7-dihydropyrazolo[1,5-a]pyrimidin-4(5H)-yl)-7,8-dihydro-1,6-naphthyridin-6(5H)-yl)-8-methyl-4H-pyrimido[1,2-b]pyridazin-4-one] were, in that order, 115% and 7.52.
`Cc1cc2nccc(=O)n2nc1N1CCc2ncc(Nc3ccc(F)nc3)cc2C1` [Compound 2-87, 7-(3-((6-fluoropyridin-3-yl)amino)-7,8-dihydro-1,6-naphthyridin-6(5H)-yl)-8-methyl-4H-pyrimido[1,2-b]pyridazin-4-one]: the Emax at 30 µM is 99% and the pEC50 was 6.64.
Take `COCc1cc(=O)n2nc(N3CCc4ncc(-c5cnc(OC)cc5C)cc4C3)c(C)c(C)c2n1` [Compound 1-262, 7-(3-(6-methoxy-4-methylpyridin-3-yl)-7,8-dihydro-1,6-naphthyridin-6(5H)-yl)-2-(methoxymethyl)-8,9-dimethyl-4H-pyrimido[1,2-b]pyridazin-4-one]: the Emax at 30 µM amounted to 99% and the pEC50 is 5.76.
Consider `Cc1cc2nc(C(F)F)cc(=O)n2nc1N1CCc2ncc(C(F)(F)F)cc2C1` [Compound 1-26, 2-(difluoromethyl)-8-methyl-7-(3-(trifluoromethyl)-7,8-dihydro-1,6-naphthyridin-6(5H)-yl)-4H-pyrimido[1,2-b]pyridazin-4-one], for which the Emax at 30 µM was 74% and the negative-log EC50 (pEC50) was 6.85.
Regarding `COc1ccnc(Nc2cnc3c(c2)CN(c2nn4c(=O)ccnc4cc2C)CC3)n1` [Compound 2-140, 7-(3-((4-methoxypyrimidin-2-yl)amino)-7,8-dihydro-1,6-naphthyridin-6(5H)-yl)-8-methyl-4H-pyrimido[1,2-b]pyridazin-4-one], the Emax at 30 µM was 56% and the pEC50 was 6.01.
Take `COc1ccsc1-c1cnc2c(c1)CN(c1nn3c(=O)cc(C)nc3cc1C)CC2` [Compound 1-298, 7-(3-(3-methoxythiophen-2-yl)-7,8-dihydro-1,6-naphthyridin-6(5H)-yl)-2,8-dimethyl-4H-pyrimido[1,2-b]pyridazin-4-one]: the Emax at 30 µM is 85% and the pEC50 was 7.08.
With `Cc1ccnnc1-c1cnc2c(c1)CN(c1nn3c(=O)ccnc3cc1C)CC2` [Compound 1-356, 8-methyl-7-(3-(4-methylpyridazin-3-yl)-7,8-dihydro-1,6-naphthyridin-6(5H)-yl)-4H-pyrimido[1,2-b]pyridazin-4-one], the Emax at 30 µM was determined as 70%.
Consider `Cc1cc(=O)n2nc(N3CCc4ncc(-c5ccc(C6CC6)nc5)cc4C3)c(C)c(C)c2n1` [Compound 1-128, 7-(3-(6-cyclopropylpyridin-3-yl)-7,8-dihydro-1,6-naphthyridin-6(5H)-yl)-2,8,9-trimethyl-4H-pyrimido[1,2-b]pyridazin-4-one], for which the Emax at 30 µM was determined as 80% and the pEC50 was 6.11.
For `Cc1cc(=O)n2nc(N3CCc4ncc(-c5ccc(C(F)(F)F)nc5)cc4C3)c(C)cc2n1` [Compound 1-73, 2,8-dimethyl-7-(3-(6-(trifluoromethyl)pyridin-3-yl)-7,8-dihydro-1,6-naphthyridin-6(5H)-yl)-4H-pyrimido[1,2-b]pyridazin-4-one], the Emax at 30 µM worked out at 77% and the pEC50 is 6.34.
